Target: T1, HPV-11 E1-E2-DNA origin of replication complex (Human papillomavirus 11, UniProt P04015)
T1 construct: approximately 100-200 ng of purified E1
Test: E2-dependent E1 DNA binding assay (E1-E2 DNA assay)
Protocol: This particular assay determines the ability of a test compound to inhibit the activity (IC50) of HPV-11 DNA replication. More specifically, in the assay described herein, the inhibitory activity of the test compound is evaluated based on its ability to interfere with the E1-E2-DNA origin of replication interaction, thereby inhibiting initiation of viral DNA replication.
This assay was modeled on a similar assay for SV40 T Antigen described by McKay (J. Mol. Biol., 1981,145:471). A 400 bp radiolabeled DNA probe, containing the HPV-11 origin of replication (Chiang et al., 1992, Proc. Natl. Acad. Sci. USA 89:5799) was produced by pcr, using plasmid pBluescript™ SK encoding the origin (nucleotides 7886-61 of the HPV-11 genome in unique BAMH1 site) as template and primers flanking the origin. Radiolabel was incorporated as [^33P]dCTP. Binding assay buffer consisted of: 20 mM Tris pH 7.6, 100 mM NaCl, 1 mM DTT, 1 mM EDTA.
Other reagents used were protein A-SPA beads (type II, Amersham) and K72 rabbit polyclonal antiserum, raised against a peptide corresponding to the C-terminal 14 amino acids of HPV-11 E1. Following the protocol from Amersham, one bottle of beads was mixed with 25 mL of binding assay buffer. For the assay, a saturating amount of K72 antiserum was added to the beads and the mixture was incubated for 1 h, washed with one volume of binding assay buffer, and then resuspended in the same volume of fresh binding assay buffer. Binding reactions contained 8 ng of E2, approximately 100-200 ng of purified E1, and 0.4 ng of radiolabeled probe in a total of 80 μL of binding assay buffer. After 1 h at room temperature, 25 μL of K72 antibody-SPA bead suspension was added to with the binding reaction and mixed. After an additional hour of incubation at room temperature, the reactions were centrifuged briefly to pellet the beads and the extent of complex formation was determined by scintillation counting on a Packard TopCount™. Typically, the signal for reactions containing E1 and E2 was 20-30 fold higher than the background observed when either E1, E2, or both was omitted.

[1] = Table 1A, enantiomerically pure cis/cis isomer (form 1)
[2] = Table 1, racemic cis/cis isomer (form 1)

T1 sequence (P04015 whole entry, one chain of several): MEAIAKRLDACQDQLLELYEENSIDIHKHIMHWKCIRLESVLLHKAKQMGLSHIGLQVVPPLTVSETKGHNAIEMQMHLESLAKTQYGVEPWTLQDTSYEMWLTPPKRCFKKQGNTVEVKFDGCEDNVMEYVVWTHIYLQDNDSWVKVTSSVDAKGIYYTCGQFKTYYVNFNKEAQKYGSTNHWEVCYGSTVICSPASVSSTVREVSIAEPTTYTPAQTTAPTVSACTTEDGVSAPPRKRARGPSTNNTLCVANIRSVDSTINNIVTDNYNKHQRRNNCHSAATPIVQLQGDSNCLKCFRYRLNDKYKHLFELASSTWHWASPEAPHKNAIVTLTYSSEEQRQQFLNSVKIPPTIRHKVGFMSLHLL

IC50 [2] [µM] | SMILES | further results
– | Cc1ccc2c(c1)C(=O)C1(OC(c3ccc(Cl)c(Cl)c3)C(C(=O)Nc3ccc(-c4csnn4)cc3)C1C(=O)O)C2=O (single isomer, unassigned) [A1007] | IC50 [1]: 0.5 to 5 µM
– | CC(=O)c1ccc(NC(=O)C2C(/C=C/c3ccccc3)OC3(C(=O)c4ccccc4C3=O)C2C(=O)O)cc1 (stereo not shown) [compound 4005] | IC50 (Table 4, racemic cis/cis isomer (form 1)): 5 to 50 µM
5 to 50 | CC(=O)c1ccc(NC(=O)C2C(c3ccc(Cl)c(Cl)c3)OC3(C(=O)c4ccc5ccccc5c4C3=O)C2C(=O)O)cc1 (stereo not shown) [compound 1095] | –
5 to 50 | CC(=O)c1ccc(NC(=O)C2C(c3ccc(Cl)c(Cl)c3)OC3(C(=O)c4ccc5ccccc5c4C3=O)C2C(=O)O)cc1 (stereo not shown) [compound 1091] | –
5 to 50 | CC(=O)c1ccc(NC(=O)C2C(c3ccc(Cl)c(Cl)c3)OC3(C(=O)c4cc5ccccc5cc4C3=O)C2C(=O)O)cc1 (stereo not shown) [compound 1090] | –
– | Cc1ccc2c(c1)C(=O)C1(OC(c3ccc(Cl)c(Cl)c3)C(C(=O)Nc3ccc(-c4csnn4)cc3)C1C(=O)O)C2=O (single isomer, unassigned) [A1008] | IC50 [1]: < 0.5 µM

SMILES | IC50 [2] [µM] | further results
CCCCNC(=O)C1C(c2ccc(Cl)c(Cl)c2)OC2(C(=O)c3ccccc3C2=O)C1C(=O)O (stereo not shown) [compound 1050] | 0.5 to 5 | –

From US6759409B2, “Inhibitors of papilloma virus” (Boehringer Ingelheim (Canada) Ltd., priority 2000, dated 2004)
